Data on seven compounds can be found in patent publication US20250289800A1, “Selective Parp1 Inhibitor And Application Thereof” (Kangbaida (Sichuan) Biotechnology Co., Ltd., priority 2021, published 2025).

Each structure is given as a SMILES string.

The test system of data set [1] is monolayer MDCK-MDR1 cells. The data set can be described thus: Bidirectional permeability evaluation with MDCK-MDR1 cell model. Type of data set: in vitro ADME. Conditions: 1 μM test compound, 37° C., 2 h. The procedure:
In this experiment, monolayer MDCK-MDR1 cells were used and incubated in a 96-well Transwell plate. A transport buffer containing 1 μM test compound was added to an appropriate administration end well on the apical or basal side, and a DMSO-containing transport buffer was added to an appropriate receiving end well. After incubation at 37° C. for 2 h, the cell plate was removed, the samples (50 μL each) were collected from the top and bottom ends and transferred to a new 96-well plate, and the protein was precipitated by subsequently adding acetonitrile. The samples were analyzed using LC-MS/MS and the concentration of the test compound was determined. The concentration data were used to calculate the apparent permeability coefficients of the transport from the apical side to the basal side and from the basal side to the apical side of the monolayer cells so as to calculate the efflux rate. The integrity of the monolayer cells was assessed by the leakage of Lucifer Yellow after 2 h of incubation.

Data set [2] in a line: Pharmacokinetic test in mice. The data set is classed as in vivo. Conditions: ICR mice, oral administration (1 mg/kg), plasma. The procedure:
An appropriate amount of the test compound was precisely weighed and formulated into a 0.1 mg/mL solution with 30% DMSO and 30% HP-β-CD for intravenous injection, and the test compound was formulated into a 0.1 mg/mL solution with 0.5% MC for intragastric administration. Healthy adult male ICR mice were fasted overnight and then given the test compound via intravenous injection (0.5 mg/kg) and intragastric administration (1 mg/kg). Blood (anticoagulated with heparin sodium) was collected from the forelimb vein at different time points (0.083 h, 0.25 h, 0.5 h, 1 h, 2 h, 4 h, 8 h and 24 h) after administration. The blood samples were separated by centrifugation at 6800 g at 4° C. for 10 min to obtain plasma, and all the samples were stored at −80° C. for later testing. The concentration of the prototype drug in plasma was determined by an LC-MS/MS method, and the main pharmacokinetic parameters were calculated using Phoenix WinNonlin7.0.

A further data set relates to DLD-1 BRCA2−/− cells. In words: DLD-1 BRCA2−/− cell proliferation inhibition experiment. The data set is classed as cell-based. Conditions: Homo sapiens, 168 h, 7 d, CellTiter-Glo. The procedure:
3.1 DLD-1 BRCA2^−/− Cell Proliferation Inhibition Experiment Epithelial cell line DLD-1 BRCA2^−/− from human colorectal adenocarcinoma (Horizon Discovery Ltd., Cat No.: HD105-007) was cultured in an RPMI-1640 medium containing 10% FBS, 1% penicillin-streptomycin solution, 1% L-G and 0.1 mg/mL hygromycin at 37° C. and 5% CO2. By means of cell counting, 1000 DLD-1 BRCA2^−/− cells were seeded into each well of a 96-well plate and cultured overnight. Test compounds (2-fold gradient dilution, starting at the highest dose: 10 μM, a total of 9 gradient concentrations) were added the next day. Moreover, blank control wells containing DMSO at the same concentration were set. The cells were cultured at 37° C. and 5% CO2 for 7 d, CellTiter-Glo® Reagent was then added, and the chemiluminescence values were determined using a microplate reader. The IC50 value was calculated using GraphPad Prism 8 software.

Another data set relates to MDA-MB-436 cells. The data set can be described thus: MDA-MB-436 cell proliferation inhibition experiment. Type of data set: cell-based. The settings on record: Homo sapiens, 168 h, 7 d, Celltiter Glo. The procedure: Human breast cancer cell line MDA-MB-436 (supplier: ATCC, Cat #HTB-130) was cultured in an L15 medium containing 10% FBS and 1% penicillin-streptomycin solution at 37° C. and 5% CO2. By means of cell counting, 400 MDA-MB-436 cells were seeded into each well of a 384-well plate and cultured overnight. […] Moreover, blank control wells containing 0.1% DMSO were set. The cells were cultured at 37° C. and 5% CO2 for 7 d, a Celltiter Glo assay kit detection solution was then added, and the chemiluminescence values were determined using a microplate reader. The IC50 value was calculated using GraphPad Prism 8 software.

With `CCc1cc2ncc(CN3CCN(c4ccc(C(=O)NC)nc4)CC3)cc2[nH]c1=O` [Comparative example 1], the “MDCK-MDRII Papp (A-B) (10−6, cm/s)” value in data set [1] (apical to basal) is 3.38 10−6, cm/s. The “MDCK-MDRII Papp (B-A) (10−6, cm/s)” value in data set [1] (basal to apical) is given as 43.78 10−6, cm/s. Also, in data set [2], the “AUC0-t” value was found to be 47560 ng·h/mL, the “Cmax” value was found to be 5410 ng/mL and the “T1/2” value worked out at 6.25 h.

As for `CCc1cc2ncc(CN3CCN(c4ccc(C#N)cc4F)CC3)cc2[nH]c1=O` [Compound 1, 4-(4-((7-ethyl-6-oxo-5,6-dihydro-1,5-naphthyridin-3-yl)methyl)piperazin-1-yl)-3-fluorobenzonitrile], the IC50 came to 1.7 nM in the data set with DLD-1 BRCA2−/− cells and 12.2 nM with MDA-MB-436 cells. `CCc1cc2ncc(CN3CCN(c4ccc(F)cn4)CC3)cc2[nH]c1=O` [Compound 3, 3-ethyl-7-((4-(5-fluoropyridin-2-yl)piperazin-1-yl)methyl)-1,5-naphthyridin-2(1H)-one]: the 50% inhibitory concentration (IC50) with DLD-1 BRCA2−/− cells was 3.3 nM; in the data set with MDA-MB-436 cells, 11.1 nM.

`CCc1cc2ncc(CN3CCN(c4ccc(C#N)nc4)CC3)cc2[nH]c1=O` [Compound 4, 5-(4-((7-ethyl-6-oxo-5,6-dihydro-1,5-naphthyridin-3-yl)methyl)piperazin-1-yl)picolinonitrile] displayed an IC50 with DLD-1 BRCA2−/− cells of 5.4 nM. For the compound `CCc1cc2ncc(CN3CCN(c4ccc(Cl)cn4)CC3)cc2[nH]c1=O` [Compound 10, 7-((4-(5-chloropyridin-2-yl)piperazin-1-yl)methyl)-3-ethyl-1,5-naphthyridin-2(1H)-one], it took 12.1 nM to reach half-maximal inhibition in the data set on MDA-MB-436 cells (IC50). In the data set on MDA-MB-436 cells, `CCc1cc2ncc(CN3CCN(c4ccc(-c5cnn(C)c5)cn4)CC3)cc2[nH]c1=O` [Compound 21, 3-ethyl-7-((4-(5-(1-methyl-1H-pyrazol-4-yl)pyridin-2-yl)piperazin-1-yl)methyl)-1,5-naphthyridin-2(1H)-one] came in with an IC50 of 27.8 nM. The compound `CCc1cc2ncc(CN3CCN(c4ccc(C(F)F)cn4)CC3)cc2[nH]c1=O` [Compound 24, 7-((4-(5-(difluoromethyl)pyridin-2-yl)piperazin-1-yl)methyl)-3-ethyl-1,5-naphthyridin-2(1H)-one] registered an IC50 with MDA-MB-436 cells of 8.3 nM.
